In ChEMBL document CHEMBL3992552, “Mechanisms of action and structure-activity relationships of cytotoxic flavokawain derivatives” (Bioorg Med Chem, 2017):
Calls of active or inactive are those of the source. No cut-off for these calls is given here.

Key:
Format in all cases: functional
MCF7 = assay: Cytotoxicity against human MCF7 assessed as cell viability after 48 hrs by Hoechst 33342 staining based assay; conditions: MCF7, 48 h
Huh-7 [1] = assay: Cell cycle arrest in human HuH7 cells assessed as accumulation at M phase by Hoechst staining based fluorescence assay
Huh-7 [2] = assay: Cell cycle arrest in human HuH7 cells assessed as accumulation at G1/S phase by Hoechst staining based fluorescence assay
PC-3 = assay: Cell cycle arrest in human PC3 cells assessed as accumulation at G1/S phase by Hoechst staining based fluorescence assay
HaCaT = assay: Cell cycle arrest in human HaCaT cells assessed as accumulation at G1/S phase by Hoechst staining based fluorescence assay
HCT-116 [3] = assay: Cell cycle arrest in human HCT116 cells harboring wild-type p53 assessed as accumulation at M phase at 12 uM measured after 48 hrs by Hoechst staining based fluorescence assay (reference value: 2.3 to […])
HCT-116 [4] = assay: Cell cycle arrest in human HCT116 cells harboring wild-type p53 assessed as accumulation at M phase at 24 uM measured after 48 hrs by Hoechst staining based fluorescence assay (reference value: 2.3 to […])
HCT-116 [5] = assay: Cell cycle arrest in human HCT116 cells harboring wild-type p53 assessed as accumulation at S phase at 12 uM measured after 48 hrs by Hoechst/BrdU staining based fluorescence assay (reference value: 68%)
HCT-116 [6] = assay: Cell cycle arrest in human HCT116 cells harboring wild-type p53 assessed as accumulation at S phase at 24 uM measured after 48 hrs by Hoechst/BrdU staining based fluorescence assay (reference value: 68%)

SMILES | IC50 (MCF7) | Activity (Huh-7 [1]) | also measured
COc1cc(OC)c(C(=O)/C=C/c2ccc(F)cc2)c(OC)c1 | 7.7 µM | Active | 
COc1cc(O)c(C(=O)/C=C/c2ccccc2)c(OC)c1 [FLAVOKAWAIN B] | 15.5 µM |  | Activity (Huh-7 [2]): Active; Activity (PC-3): Active; Activity (HaCaT): Active
COc1cccc(/C=C/C(=O)c2c(O)cc(OC)cc2OC)c1 | 10.3 µM |  | Activity (Huh-7 [2]): Active; Activity (HaCaT): Active
COc1cc(O)c(C(=O)/C=C/c2ccccc2SC)c(OC)c1 | 15.9 µM | Active | 
COc1cc(OC)c(C(=O)/C=C/c2ccccc2SC)c(OC)c1 | 9.3 µM | Active | 
COc1cccc(/C=C/C(=O)c2c(OC)cc(OC)cc2OC)c1 | 9.4 µM | Active | Activity (HCT-116 [3]): 4.5%; Activity (HCT-116 [4]): 1.2%; Activity (HCT-116 [5]): 20%; Activity (HCT-116 [6]): 0.6%
COc1cc(O)c(C(=O)/C=C/c2ccccc2OC)c(OC)c1 | 10.5 µM |  | 
COc1cc(OC)c(C(=O)/C=C/c2ccccc2)c(OC)c1 | 9.4 µM |  | 
COc1cc(O)c(C(=O)/C=C/c2ccc(F)cc2)c(OC)c1 | 8.8 µM |  | 
COc1cc(OC)c(C(=O)/C=C/c2ccc(Br)cc2)c(OC)c1 | 9.5 µM | Active | 
